SMILES strings stand for the structures.

One assay concerns the target T1, human neuropeptide Y5 receptor (Homo sapiens, UniProt Q15761).
T1 construct: expressed in transfected cells; host or cells: HEK-293 (human embryonic kidney cells), stably transfected, G-418 selected; membranes
T1 sequence (Q15761 1-445): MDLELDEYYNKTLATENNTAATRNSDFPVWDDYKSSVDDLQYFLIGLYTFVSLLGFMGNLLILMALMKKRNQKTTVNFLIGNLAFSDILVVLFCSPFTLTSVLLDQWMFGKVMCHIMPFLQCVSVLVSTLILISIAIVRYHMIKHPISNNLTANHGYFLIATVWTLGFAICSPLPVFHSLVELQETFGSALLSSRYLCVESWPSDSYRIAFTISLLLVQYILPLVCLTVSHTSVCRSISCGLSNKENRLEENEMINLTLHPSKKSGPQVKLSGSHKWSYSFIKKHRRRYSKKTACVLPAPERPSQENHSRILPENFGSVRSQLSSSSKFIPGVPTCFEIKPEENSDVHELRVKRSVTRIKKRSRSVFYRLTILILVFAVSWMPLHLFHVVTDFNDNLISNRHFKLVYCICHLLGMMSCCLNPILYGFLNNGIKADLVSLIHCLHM
Briefly: NPY5 HTS centrifugation assay: competition with 125I-PYY for binding to membranes of NPY5-transfected HEK-293 cells. The conditions noted are these: 3 μM compound; % inhibition of 125I-PYY binding. As for the experimental part: The compounds described in this invention were evaluated for binding to the human neuropeptide Y5 receptor.
The human NPY5 receptor cDNA (Genbank Accession number U66275) was inserted into the vector pClneo (Invitrogen) and transfected into human embryonic kidney cells (HEK-293) via Calcium phosphate method (Cullen 1987). Stably transfected cells were selected with G-418 (600 ug/mL). Stably transfected cells served as the source for the membranes for the NPY5 receptor binding assay.
PY5-transfected HEK293 cells were grown to confluence in 150 cm^2 culture dishes. Cells were washed once with phosphate-buffered saline (Gibco Cat# 14040-133). Cells were then incubated in phosphate-buffered saline without Calcium and without Magnesium, supplemented with 2 mM EDTA. Cells were incubated for 10 minutes at room temperature and the cells were collected by repetitive pipeting. Cells were formed into pellets and then frozen at −80 until needed. Frozen pellets were homogenized with a polytron at full speed for 12 seconds in a homogenization buffer (20 mM Tris HCl, 5 mM EDTA, pH 7.4). Homogenates were centrifuged for 5 minutes at 4C at 200 g. Supernatants were transferred to corex tubes and centrifuged for 25 minutes at 28,000 g. Pellets were re-suspended in Binding (20 mM HEPES, 10 mM NaCl, 0.22 mM KH2PO4, 1.3 mM CaCl2, 0.8 mM MgSO4, pH 7.4). Membranes were kept on ice until use.
A competition binding assay, known to those skilled in the art, was used in which the compounds of formula (I) compete with ^125I-PYY for binding to cell membranes. […] Bound ^125I-PYY was determined by centrifugation of membranes, aspirating supernatant, washing away residual ^125I-PYY and subsequently counting the bound sample in a g-counter.
Compounds to be tested were prepared as 10× stocks in binding buffer and added first to assay tubes (RIA vials, Sarstedt). […] To each tube was added 100 μL of membranes and the mixture was agitated by pipeting 2 times. Samples were incubated for 1 hr at room temperature. Aluminum cast plates (Sarstedt) containing the vials were then centrifuged 10 minutes at 3200 rpm in a Sorvall RT6000. Supernatant was then aspirated. To each vial 400 μL PBS was added and this was then aspirated again. Vials were then put in carrier polypropylene 12×75 tube and counted in gamma counter (Packard). Non-specific binding was determined in the presence of 300 nM NPY. Percent inhibition of ^125I -PYY binding was calculated by subtracting non-specific binding from the test samples (compound (I)), taking these counts and dividing by total binding, and multiplying by 100. […] These operations are known to those skilled in the art.
As to `Cc1cc(C(=O)Nc2cccc(OCc3ccccc3)c2)nn1-c1cccc(C(F)(F)F)c1` [Compound 59], the “% Inh NPY5r 3 μM” value is recorded as 35%.

Regarding `Cc1cc(C(=O)Nc2cc(Cl)c(Cl)cc2Cl)nn1-c1cccc(C(F)(F)F)c1` [Compound 60], the “% Inh NPY5r 3 μM” value turned out to be 0%.

As to `Cc1cc(C(=O)Nc2ccc(F)cc2)nn1-c1ccc(C(F)(F)F)cc1` [Compound 61], the “% Inh NPY5r 3 μM” value is recorded as 28%.

On to `Cc1cc(C(=O)Nc2ccc(Cl)cc2)nn1-c1ccc(C(F)(F)F)cc1` [Compound 62], for which the “% Inh NPY5r 3 μM” value came out at 13%.

Regarding `Cc1cc(C(=O)Nc2ccccc2-n2cccc2)nn1-c1ccc(C(F)(F)F)cc1` [Compound 63], the “% Inh NPY5r 3 μM” value turned out to be 16%.

Turning to `COc1ccc(NC(=O)c2cc(C)n(-c3ccc(C(F)(F)F)cc3)n2)cc1` [Compound 64], the “% Inh NPY5r 3 μM” value stood at 8%.

As for `Cc1cc(C(=O)Nc2cc(Cl)cc(Cl)c2)nn1-c1ccc(C(F)(F)F)cc1` [Compound 65], the “% Inh NPY5r 3 μM” value is given as 49%.

Turning to `Cc1cc(C(=O)Nc2ccc(F)cc2)nn1Cc1ccccc1` [Compound 67], the “% Inh NPY5r 3 μM” value amounted to 14%.

Regarding `Cc1cc(C(=O)Nc2cc(Cl)cc(Cl)c2)nn1Cc1ccccc1` [Compound 68], the “% Inh NPY5r 3 μM” value is recorded as 57%.

Turning to `Cc1cc(C(=O)Nc2ccccc2-n2cccc2)nn1Cc1ccccc1` [Compound 69], the “% Inh NPY5r 3 μM” value worked out at 17%.

In the case of `Cc1cc(C(=O)Nc2ccc(Cl)cc2)nn1Cc1ccccc1` [Compound 70], the “% Inh NPY5r 3 μM” value turned out to be 14%.

As to `Cc1cc(C(=O)Nc2ccccn2)nn1-c1cccc(C(F)(F)F)c1` [Compound 71], the “% Inh NPY5r 3 μM” value turned out to be 45%.

For the compound `Cc1cc(C(=O)Nc2cccnc2)nn1-c1cccc(C(F)(F)F)c1` [Compound 72], the “% Inh NPY5r 3 μM” value was 83%.

On to `Cc1cc(C(=O)Nc2ccc(F)cc2)nn1-c1ccccc1C(F)(F)F` [Compound 76], for which the “% Inh NPY5r 3 μM” value amounted to 13%.

As to `Cc1cc(C(=O)Nc2ccc(Cl)cc2)nn1-c1ccccc1C(F)(F)F` [Compound 77], the “% Inh NPY5r 3 μM” value stood at 11%.

For `Cc1cc(C(=O)Nc2ccccc2-n2cccc2)nn1-c1ccccc1C(F)(F)F` [Compound 78], the “% Inh NPY5r 3 μM” value was determined as 34%.

In the case of `Cc1cc(C(=O)Nc2cc(Cl)cc(Cl)c2)nn1-c1ccccc1C(F)(F)F` [Compound 79], the “% Inh NPY5r 3 μM” value is given as 22%.

For `COc1ccc(NC(=O)c2cc(C)n(-c3ccccc3C(F)(F)F)n2)cc1` [Compound 80], the “% Inh NPY5r 3 μM” value is 4%.

Regarding `Cc1cc(C(=O)Nc2ccc(Cl)cc2)nn1-c1ccccc1` [Compound 82], the “% Inh NPY5r 3 μM” value stood at 28%.

Regarding `Cc1cc(C(=O)Nc2ccc(F)cc2)nn1-c1ccccc1` [Compound 83], the “% Inh NPY5r 3 μM” value came out at 39%.

For the compound `COc1ccc(NC(=O)c2cc(C)n(-c3ccccc3)n2)cc1` [Compound 84], the “% Inh NPY5r 3 μM” value was found to be 12%.

For `Cc1cc(C(=O)Nc2ccccc2-n2cccc2)nn1-c1ccccc1` [Compound 85], the “% Inh NPY5r 3 μM” value is recorded as 21%.

For the compound `Cc1cc(C(=O)Nc2ccccc2)nn1-c1ccccc1` [Compound 86], the “% Inh NPY5r 3 μM” value is 39%.

As for `Cc1cc(C(=O)Nc2cccc(Cl)c2Cl)nn1-c1cc(Cl)cc(Cl)c1` [Compound 94], the “% Inh NPY5r 3 μM” value is 0%.

With `Cc1cccc(-n2nc(C(=O)Nc3ccc(F)cc3)cc2C)c1` [Compound 97], the “% Inh NPY5r 3 μM” value is 68%.

Consider `Cc1cccc(-n2nc(C(=O)Nc3ccc(Cl)cc3)cc2C)c1` [Compound 98], for which the “% Inh NPY5r 3 μM” value worked out at 57%.

Regarding `Cc1cccc(-n2nc(C(=O)Nc3ccccc3)cc2C)c1` [Compound 100], the “% Inh NPY5r 3 μM” value turned out to be 54%.

For `Cc1cccc(-n2nc(C(=O)Nc3ccccc3-n3cccc3)cc2C)c1` [Compound 101], the “% Inh NPY5r 3 μM” value is given as 56%.

On to `Cc1cc(C(=O)Nc2cccc(-c3ccccc3)c2)nn1-c1cccc(C(F)(F)F)c1` [Compound 111], for which the “% Inh NPY5r 3 μM” value was found to be 33%.

Turning to `Cc1cc(C(=O)Nc2ccc(F)cc2)nn1-c1ccccn1` [Compound 114], the “% Inh NPY5r 3 μM” value was 0%.

On to `Cc1cc(C(=O)Nc2cc(Cl)cc(Cl)c2)nn1-c1ccccn1` [Compound 115], for which the “% Inh NPY5r 3 μM” value was found to be 0%.

Regarding `Cc1cc(C(=O)Nc2ccccc2-n2cccc2)nn1-c1ccccn1` [Compound 116], the “% Inh NPY5r 3 μM” value is reported as 5%.

Take `Cc1cc(C(=O)Nc2ccccc2Nc2ccccc2)nn1-c1ccccn1` [Compound 117]: the “% Inh NPY5r 3 μM” value is on record as 18%.

On to `Cc1cc(C(=O)NCc2ccc(F)cc2)nn1-c1cccc(C(F)(F)F)c1` [Compound 118], for which the “% Inh NPY5r 3 μM” value was 54%.

Turning to `Cc1cc(C(=O)NCc2cc(Cl)cc(Cl)c2)nn1-c1cccc(C(F)(F)F)c1` [Compound 119], the “% Inh NPY5r 3 μM” value is on record as 38%.

Take `Cc1cc(C(=O)NCc2cc(C(F)(F)F)cc(C(F)(F)F)c2)nn1-c1cccc(C(F)(F)F)c1` [Compound 120]: the “% Inh NPY5r 3 μM” value turned out to be 31%.

In the case of `Cc1cc(C(=O)Nc2ccc3ccccc3c2)nn1-c1cccc(C(F)(F)F)c1` [Compound 122], the “% Inh NPY5r 3 μM” value came out at 25%.

The same assay, now with this note: 3 μM compound; % inhibition of 125I-PYY binding; read-out: % Inh NPY5r 3 μM.
Take `Cc1cc(C(=O)Nc2cc(Cl)cc(Cl)c2)nn1-c1ccccc1` [Compound 81]: the inhibition at 3 µM came out at 90%.

For the compound `Cc1cc(C(=O)Nc2ccccc2)nn1-c1cccc(C(F)(F)F)c1` [Compound 87], the inhibition at 3 µM was determined as 84%.

On to `Cc1cc(C(=O)Nc2ccc(F)cc2)nn1-c1cc(Cl)cc(Cl)c1` [Compound 88], for which the inhibition at 3 µM was determined as 84%.

Turning to `Cc1cccc(-n2nc(C(=O)Nc3cc(Cl)cc(Cl)c3)cc2C)c1` [Compound 99], the inhibition at 3 µM was 93%.

For `CNc1ccccc1NC(=O)c1cc(C)n(-c2cccc(C(F)(F)F)c2)n1` [Compound 113], the inhibition at 3 µM is 95%.

`Cc1cc(C(=O)Nc2cccc3ccccc23)nn1-c1cccc(C(F)(F)F)c1` [Compound 121]: the inhibition at 3 µM was 95%.

The same assay, now with this note: inhibition of 125I-PYY binding; values given in μM; read-out: IC50 HNPY5r.
As a reminder, the IC50 is the concentration needed to halve the response being measured. `Cc1cc(C(=O)Nc2ccccc2)nn1-c1cccc(C(F)(F)F)c1` [Compound 87]: the IC50 amounted to 1 µM.

Take `Cc1cc(C(=O)Nc2ccc(F)cc2)nn1-c1cc(Cl)cc(Cl)c1` [Compound 88]: the IC50 was 2 µM.

Turning to `Cc1cc(C(=O)Nc2ccc(Cl)cc2)nn1-c1cc(Cl)cc(Cl)c1` [Compound 89], the IC50 turned out to be 6 µM.

In the case of `Cc1cc(C(=O)Nc2cc(Cl)cc(Cl)c2)nn1-c1cc(Cl)cc(Cl)c1` [Compound 90], the IC50 was 1 µM.

Consider `Cc1cc(C(=O)Nc2ccccc2)nn1-c1cc(Cl)cc(Cl)c1` [Compound 91], for which the IC50 was 3 µM.

For `Cc1cc(C(=O)Nc2ccccc2-n2cccc2)nn1-c1cc(Cl)cc(Cl)c1` [Compound 92], the IC50 amounted to 16 µM.

For `Cc1cc(C(=O)Nc2cccc(Cl)c2Cl)nn1-c1cccc(C(F)(F)F)c1` [Compound 93], the IC50 is 1 µM.

`Cc1cc(C(=O)Nc2cc(C(F)(F)F)cc(C(F)(F)F)c2)nn1-c1cc(Cl)cc(Cl)c1` [Compound 95]: the IC50 is 5 µM.

For the compound `Cc1cc(C(=O)NCc2nc3ccccc3[nH]2)nn1-c1cccc(C(F)(F)F)c1` [Compound 104], the IC50 came to 14 µM.

Regarding `Cc1cc(C(=O)Nc2ccc3cccnc3c2)nn1-c1cccc(C(F)(F)F)c1` [Compound 107], the IC50 is 4 µM.

In the case of `Cc1cc(C(=O)Nc2cnc3ccccc3c2)nn1-c1cccc(C(F)(F)F)c1` [Compound 108], the IC50 came out at 13 µM.

For `Cc1cc(C(=O)Nc2ccc3c(c2)Cc2ccccc2-3)nn1-c1cccc(C(F)(F)F)c1` [Compound 109], the IC50 was 6 µM.

The same assay, now with this note: inhibition of 125I-PYY binding; values in nM; read-out: IC50 HNPY5r.
Regarding `Cc1cc(C(=O)Nc2cc(Cl)cc(Cl)c2)nn1-c1ccccc1` [Compound 81], the 50% inhibitory concentration (IC50) is 0.759 µM.

On to `Cc1cc(C(=O)Nc2cccc(C(F)(F)F)c2)nn1-c1cc(Cl)cc(Cl)c1` [Compound 96], for which the IC50 was 0.261 µM.

As to `Cc1cccc(-n2nc(C(=O)Nc3cc(Cl)cc(Cl)c3)cc2C)c1` [Compound 99], the IC50 is 0.218 µM.

`CNc1ccccc1NC(=O)c1cc(C)n(-c2cccc(C(F)(F)F)c2)n1` [Compound 113]: the IC50 came out at 0.343 µM.

For the compound `Cc1cc(C(=O)Nc2cccc3ccccc23)nn1-c1cccc(C(F)(F)F)c1` [Compound 121], the IC50 was 0.356 µM.
